IC50 and ED50 data for one compound are collected here from patent US5281613A, “Heterocyclic compounds” (Imperial Chemical Industries PLC, priority 1991, dated 1994).

Experiment [1] addresses T1, AII receptors (guinea pig adrenal gland cell surface membrane fraction) (Cavia porcellus, UniProt Q9WV26).
T1 construct: from tissue; host or cells: guinea pig adrenal gland, cell surface membrane fraction
T1 sequence (Q9WV26 1-359): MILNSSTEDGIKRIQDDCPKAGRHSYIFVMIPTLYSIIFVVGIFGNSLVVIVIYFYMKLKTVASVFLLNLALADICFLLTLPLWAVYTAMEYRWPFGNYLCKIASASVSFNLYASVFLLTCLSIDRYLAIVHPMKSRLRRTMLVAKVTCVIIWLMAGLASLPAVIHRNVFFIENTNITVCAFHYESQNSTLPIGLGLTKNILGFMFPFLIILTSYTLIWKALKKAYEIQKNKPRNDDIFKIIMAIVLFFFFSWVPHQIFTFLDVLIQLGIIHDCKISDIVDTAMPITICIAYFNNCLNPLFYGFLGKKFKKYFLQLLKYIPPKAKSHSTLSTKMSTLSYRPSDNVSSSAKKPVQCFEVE
As to the kind of experiment: Test A: in vitro displacement of radiolabelled AII binding to guinea pig adrenal gland cell surface membranes. The settings on record: read-out: IC50 (concentration for 50% displacement of radiolabelled AII binding). As to the method: The antagonism of one or more of the physiological actions of AII and, in particular, the antagonism of the interaction of AII with the receptors which mediate its effects on a target tissue, may be assessed using one or more of the following, routine laboratory procedures:
This in vitro procedure involves the incubation of the test compound initially at a concentration of 100 micromolar (or less) in a buffered mixture containing fixed concentrations of radiolabelled AII and a cell surface membrane fraction prepared from a suitable angiotensin target tissue. In this test, the source of cell surface membranes is the guinea pig adrenal gland which is well known to respond to AII. Interaction of the radiolabelled AII with its receptors (assessed as radiolabel bound to the particlate membrane fraction following removal of unbound radiolabel by a rapid filtration procedure such as is standard in such studies) is antagonized by compounds which also bind to the membrane receptor sites and the degree of antagonism (observed in the test as displacement of membrane-bound radioactivity) is determined readily by comparing the receptor-bound radioactivity in the presence of the test compound at the specified test concentration with a control value determined in the absence of the test compound. […]

The subject of experiment [2] is angiotensin II-induced pressor responses. As to the kind of experiment: Test C: antagonism of angiotensin II-induced pressor responses in rats. In kind it is in vivo. The settings on record: iv, rat, i.v. administration. From the text: The antagonism of one or more of the physiological actions of AII and, in particular, the antagonism of the interaction of AII with the receptors which mediate its effects on a target tissue, may be assessed using one or more of the following, routine laboratory procedures: Test C This in vivo test involves using terminally-anaesthetised or conscious rats in which an arterial catheter has been implanted under anaesthesia for the measurement of changes in blood pressure. The AII antagonistic effects of the test compound following oral or parenteral administration, are assessed against angiotensin II-induced pressor responses. To ensure that the effect is specific, the effect of the test compound on vasopressin-induced pressor responses may also be determined in the same preparation.

Regarding `CCc1cc(OCc2ccc3oc(-c4ccccc4-c4nnn[nH]4)c(Br)c3c2)c2c(n1)CCCC2.Cl` [Example 8, 4-[(3-bromo-2-(2-(1H-tetrazol-5-yl)phenyl)benzofuran-5-yl)methoxy]-2-ethyl-5,6,7,8-tetrahydroquinoline hydrochloride], the IC50 in experiment [1] was found to be 30 nM. The compound further gave an ED50 in experiment [2] of 8.2 mg/kg.
